Measurements published in patent US20240108753A1, “NUCLEIC ACID DELIVERY” (NUNTIUS THERAPEUTICS LIMITED, priority 2021, published 2024).

Key:
[1] = Hydrodynamic size, polydispersity index and zeta potential of dendrimer, lipid and mRNA complexes; assay type: physicochemical; conditions: DOTMA/DOPE w/w 10:1 to mRNA; for Hydrodynamic size: dendrimer, lipid and mRNA complexes
Method: The hydrodynamic size, polydispersity index and Zeta potential was determined for a set of the dendrimers disclosed in Tables 1 and 2.

HeLa cells [2] = assay: mRNA (eGFP) transfection with peptide dendrimers and DOTMA/DOPE in full growth medium; assay type: cell-based, human; conditions: for mRNA transfection efficiency (eGFP), in words: HeLa, full growth medium, DOTMA/DOPE w/w 10:1 to mRNA, relative to G1,2-RL, 3-LR
Method: FIG. 28. mRNA transfection of the peptide dendrimers with lipid system in vitro. […] The mRNA used expressed an eGFP reporter gene. Following a 24 hour transfection, the cells were harvested to assay the eGFP expression. The eGFP expression was normalised with the total amount of protein of each transfection. The gene expression level was calculated by normalising the transfection value of the G1,2-RL, 3-LR, DOTMA/DOPE & mRNA treated cells. 1st, 2nd and 3rd generation dendrimers with varying cores and 1st, 2nd, and 3rd generation peptide motifs can transfect cells with mRNA effectively under the tested conditions.
FIG. 29. mRNA transfection of the peptide dendrimers with lipid system in vitro. HeLa cells were transfected with mRNA alone or mRNA with peptide dendrimers and DOTMA/DOPE (w/w=10:1 to mRNA). The N:P ratio of G1,2-RL,3-LR was at 0.16:1 while the N:P ratios of all other dendrimers at 8:1. The mRNA used expressed an eGFP reporter gene. Following a 24 hour transfection, the cells were harvested to assay the eGFP expression. The eGFP expression was normalised with the total amount of protein of each transfection. The gene expression level was calculated by normalising the transfection value of the G1,2-RL, 3-LR, DOTMA/DOPE & mRNA treated cells. 1st, 2nd and 3rd generation dendrimers with varying cores and 1st, 2nd, and 3rd generation peptide motifs can transfect cells with mRNA effectively under the tested conditions.
The effect on the number of generations of dendrimers on mRNA delivery was studied by transfecting HeLa cells in full growth medium conditions.

mice tissue = assay: In vivo luciferase mRNA expression assays; conditions: intravenous, 6 hours; for luciferase expression in tissues, mRNA delivery: NP 0.15:1, DOTMA/DOPE w/w=10:1 to mRNA
Method: Peptide dendrimers were diluted to a respective concentration and mixed with mRNA for a desired NP ratio such as NP=0.15:1 or 8:1. The solution was incubated in room temperature for 10 mins. Lipid such as DOTMA/DOPE was diluted to a respective concentration and mixed with the dendrimer-mRNA complexes for a desired NP ratio such as NP-4.7:1. The solution was incubated in room temperature for 20 mins. When required, the solution would be further diluted before injection.
All animal procedures conducted in our studies complied with UK laws and were inclusive of ethics approval. Female CD-1 mice (n=39) aged 6-8 weeks left to habituate for 1-week upon their arrival. All mice were weighed, and the formulations were delivered intravenously (100 μl) via the tail vein using 30G insulin syringes (BD biosciences).
All mice were imaged 6 hours post injection. BLI was performed using an IVIS Lumina II (Perkin Elmer) Imaging system. Mice were administered D-luciferin (30 mg/mL, XenoLight, Perkin Elmer) at a dose of 150 mg/kg. Mice were anaesthetised 6 mins after receiving D-luciferin in a chamber with 5% isoflurane and then placed on a heated imaging platform while being maintained on 2.5% isoflurane. Mice were imaged 10 min post administration of D-luciferin with an exposure time set to ensure the signal acquired was within an effective detection range (open filter, binning 8, f-stop 1). Bioluminescence signal was quantified by measuring photon flux (photons/s) in the defined region of interest (ROI) using the Living Image software (Perkin Elmer). Following in vivo whole-body imaging, the mice were euthanised, cardiac blood taken, and the tissues extracted for ex vivo imaging. Here each tissue was placed into individual wells of a 24-well imaging plate (black sided, Eppendorf) containing 0.3 mg/mL D-luciferin in PBS). The imaging plate was placed in the centre of imaging platform (Lumina II system) and signal was measured using the acquisition settings detailed above. Finally, the tissues were placed in storage vials and flash frozen in liquid nitrogen.
Mice were injected with a composition comprising DOTMA/DOPE, mRNA encoding luciferase and either G1,2,3-RL, (FIG. 10, top panel; the “G1,2,3-RL, lipid and mRNA formulation”) or G1,2-RL,3-LR (FIG. 10, bottom panel: the “G1,2,3-RL, lipid and mRNA formulation”). Each formulation was prepared and injected at an NP ratio of 8:1 and 0.15:1. Mice were prepared for detection of luciferase expression post injection.

immune cells = assay: Immune cell targeting: uptake of labelled mRNA after intravenous injection (flow cytometry); assay type: in vivo, mice
Method: Fifteen 5-7-week-old female CD-1 mice (Charles River UK) were dosed with 1 mg/kg of either mRNA labelled with Alexa Fluor488 only or mRNA labelled with Alexa Fluor488 with NTX1 and DOTMA/DOPE or mRNA labelled with Alexa Fluor488 with G1,2-RL, 3-LR and DOTMA/DOPE or mRNA labelled with Alexa Fluor488 with G1,2-RL, 3-LR and DOTMA/DOPE, respectively, via intravenous injection using a dose volume of 5 ml/kg. Group 1 received vehicle and Group 5 received mRNA alone as controls. Mice in al groups were culled 2 hours post IV administration. At the time of euthanasia, whole blood, spleen, inguinal lymph nodes and femurs were collected from all mice. White Blood Cells (WBC) were obtained from EDTA treated whole blood, spleen, inguinal lymph nodes and bone marrow for flow cytometry analysis. In short, bone marrow (BM) was flushed from femurs, and spleens and lymph nodes were processed to single cell suspensions by passing them through a 70 μm filter. Red blood cells in blood, BM and spleen were lysed before isolated WBCs from all tissues were stained with different antibody panels to identify specific sub-populations of immune cells. The staining was performed in a 96-well plate format before samples were analysed using an ACEA Novocyte 3005 flow cytometer.

HeLa cells [3] = assay: DNA (pCl-Luc luciferase plasmid) transfection with peptide dendrimer and lipid; assay type: cell-based, human; conditions: 0.25 μg pCl-Luc
Method: Cell Lines, transfection reagents and plasmids. HeLa cells were maintained in RPMI medium with 10% (v/v) FCS and 1% (v/v) P/S in a humidified atmosphere in 5% CO2 and 37° C. The plasmid pCl-Luc was derived from plasmid pCl (Promega, Southampton, UK) with the luciferase gene inserted. Branched PEI (25 kDa) was purchased from Sigma-Aldrich. Lipofectamine 2000 (L2000) and Lipofectin (DOTMA:DOPE, 1:1 (w/w)) were obtained from Invitrogen. PEI, L2000 and lipofectin were used as positive control transfection agents in accordance with the manufacturer's instructions.
Transfection procedure. 24 hours before transfection, HeLa cells were seeded (10,000 cells in 100 μL/well) in 96 well plates in order to reach 70% confluence. Plasmid transfection complexes were formed by mixing the dendrimers (100 μL, from 60 μg to 105 μg, dependent on N/P ratios) with lipofectin (4 μg; 100 μL). These mixtures were incubated with a pCl-Luc (4 μg; 100 μL) at different N/P ratios in OptiMEM for 30 min at 25° C. Transfection control complexes (PEI, Lipofectin or L2000) (total 100 μL in OptiMEM) were mixed with pCl-Luc (4 μg; 100 μL) at the respective manufacturers' recommended concentrations. For transfection in serum-free medium, before overlaying the DNA complexes on the cells, OptiMEM was added to dilute the complexes, so that each complex contained 0.25 μg DNA in a total volume of 100 μL in one well of a 96 well plate. For transfection in serum medium, before overlaying the DNA complexes on the cells, full growth medium was added to dilute the complexes, so that each complex contained 0.25 μg DNA in a total volume of 100 μL in one well of a 96 well plate. After removing complete media from the cells, the complexes were added to the plates. The plates were incubated for 4 hours at 37° C. Then, the transfection solutions were replaced by full growth media for 24 hours before luciferase activity was assayed.
Transgene expression assay. The cells were washed twice with PBS and incubated with reporter lysis buffer (20 μL, Promega) for 20 min at 4° C., then overnight at −80° C. After the cells were defrosted at room temperature, luciferase assay buffer (100 μL, Promega; prepared according to the manufacturer's protocol) was added to each well. The luminescent product was measured by Relative Light Units (RLU) in a FLUOstar Optima luminometer (BMG Labtech).
Protein content determination. The protein content of each cell lysate was determined by mixing the lysate (20 μL) with Bio-Rad Protein Assay Reagent (180 μL, Bio-Rad, Hemel Hempstead, UK). After incubation of 10 min, the absorbance at 590 nm was measured and converted to protein concentration using a BSA standard curve. RLU per mg of protein represented luciferase activity. The ratio of these two values is the activity per protein unit (in RLU/mg).

Neuro2A cells = assay: as above; assay type: cell-based, mouse; conditions: 0.25 μg pCl-Luc

Substance	Polydispersity Index (PDI) ([1]; N:P 0.16:1)	Zeta Potential ([1]; N:P 0.16:1) [mV]	Hydrodynamic size ([1]; N:P 0.16:1) [nm]	mRNA transfection efficiency (eGFP), in words (HeLa cells [2])	DNA transfection efficiency (luciferase, normalised to D/D), in words (HeLa cells [3])	DNA transfection efficiency (luciferase, normalised to D/D), in words (Neuro2A cells)	Polydispersity Index (PDI) ([1]; N:P 8:1)	Zeta Potential ([1]; N:P 8:1) [mV]	Hydrodynamic size ([1]; N:P 8:1) [nm]	other results
(LR)8(KRL)4(KRL)2KGSCGAASSLNIAXRXRRBRRXRRBRXB-NH2 [NTX1]	0.13	37	128	more effectively than G1,2-RL, 3-RL	–	–	–	–	–	luciferase expression in tissues, mRNA delivery (mice tissue): improves efficiency of mRNA delivery to lung, spleen, and lymph nodes; luciferase expression in tissues, mRNA delivery (mice tissue; listed as NXT1): more effective than G1,2,3-RL and G1,2-RL,3-LR; delivery of mRNA to immune cells (immune cells; blood, 2 hours post-injection): Delivery of mRNA to a wide range of immune cells present in the blood is possible; uptake of mRNA in immune cells (immune cells; bone marrow, 2 hrs post-injection): mediated uptake of mRNA in immune cells present in the bone marrow
(RL)4(KRL)2KGSC-NH2 [G1,2-RL]	–	–	–	–	higher transfection efficiency	higher transfection efficiency	–	–	–	–
(KL)4(KKL)2KGSC-NH2 [G1,2-KL]	–	–	–	–	higher efficiency than in Neuro2A cells	–	–	–	–	–
(K)8(KK)4(KK)2KGSC-NH2 [G1,2,3-K]	–	–	–	–	not as effective as G1,2,3-KL	not as effective as G1,2,3-KL	–	–	–	–
(kl)8(kkl)4(kkl)2kgsc-NH2 [D-G1,2,3KL]	–	–	–	–	did not have any significant impact on transfection	did not have any significant impact on transfection	–	–	–	–
(LK)8(KLK)4(KLK)2KGSC-NH2 [G1,2,3-LK]	–	–	–	–	did not have a significant difference	did not have a significant difference	–	–	–	–
(LR)4(KRL)2KRHC-NH2 [RHCG1-RL, 2-LR]	0.155	41	117	can transfect cells effectively	–	–	0.109	46	206	targeting mRNA delivery to the spleen and lung compared to G1,2-RL, 3-LR (mice tissue; N:P 0.15:1 or 8:1): higher efficiency than the third generation dendrimer G1,2-RL, 3-LR
(KL)8(KKL)4(KKL)2KKLC-NH2 [G0,1,2,3-KL]	–	–	–	–	did not affect the transfection results	did not affect the transfection results	–	–	–	–
(KL)8(KKL)4(KKL)2KGSA-NH2 [Ala-G1,2,3-KL]	–	–	–	–	did not affect the transfection results	did not affect the transfection results	–	–	–	–
(LR)8(KRL)4(KRL)2KGSCRHCRFWRYM-NH2 [LinearG1,2-RL, 3-LR]	0.143	42	118	transfection efficiency was not affected	–	–	0.289	54	62	–
(RR)4(KLL)2KGSC-NH2 [G1-LL, 2-RR]	0.124	41	135	can be used to deliver mRNA	–	–	0.087	47	213	mRNA transfection efficiency as share of the improved formulation (DOTMA/DOPE w/w=10:1, N:P=0.16:1) (HeLa cells [2]; DOTMA/DOPE w/w=2:1 to mRNA and N:P=20:1): 10%
(R)4(KR)2KRHC-NH2 [RHCG1,2-R]	0.114	37	123	can transfect cells effectively	–	–	0.252	49	172	–
